We go through one molecule from patent US20230054093A1, “TREATMENT” (priority 2019, published 2023).

Test [1] concerns the target T1, Streptococcus pneumoniae NanA sialidase CBM (SpCBM, SEQ ID NO: 4) variant Im19 V239A (Streptococcus pneumoniae, UniProt P62575, V239A).
T1 construct: SpCBM, residues 121-305 of S. pneumoniae NanA sialidase; 6His (pHISTEV) (cleaved yes); made in house; host or cells: E. coli
Nature of the test: Surface plasmon resonance (SPR, Biacore) binding affinity to sialyllactose. More on the design: key: Green: green indicates that the variant closely resembles its WT counterpart for that particular characteristic; Green’: pale green (green’) or yellow indicate increasing degrees of differences; Yellow: pale green (green’) or yellow indicate increasing degrees of differences; Orange: Red or orange indicate significant differences; Red or orange indicate significant differences. Conditions: qualitative colour code vs WT. An excerpt: (§1) The 13 soluble proteins were expressed in E. coli and purified by immobilized metal affinity chromatography (IMAC), followed by TEV digestion to remove the 6His-tag, then reverse IMAC and size exclusion chromatography (SEC).
(§2) Ten purified domains (WTSp, Im19, Im20, Im21, Im22, Im23, WTTD, Im24, Im26 and Im27) were further characterized by:
(§3) (iv) Surface plasmon resonance (SPR) to measure binding affinity to sialyllactose
Background: SPR reads the build-up and loss of mass on a sensor chip optically.

In test [2] the target is T2, Streptococcus pneumoniae NanA sialidase CBM (SpCBM, SEQ ID NO: 4) variant Im20 V239T (Streptococcus pneumoniae, UniProt P62575, V239T).
T2 construct: SpCBM, residues 121-305 of S. pneumoniae NanA sialidase; 6His (pHISTEV) (cleaved yes); made in house; host or cells: E. coli
Described as above. More on the design: key: Green: green indicates that the variant closely resembles its WT counterpart for that particular characteristic; Green’: pale green (green’) or yellow indicate increasing degrees of differences; Yellow: pale green (green’) or yellow indicate increasing degrees of differences; Orange: Red or orange indicate significant differences; Red or orange indicate significant differences. Conditions: qualitative colour code vs WT.
Description: as §1, §2, §3

The target of test [3] is T3, Streptococcus pneumoniae NanA sialidase CBM (SpCBM, SEQ ID NO: 4) variant Im21 V246G (Streptococcus pneumoniae, UniProt P62575, V246G).
T3 construct: SpCBM, residues 121-305 of S. pneumoniae NanA sialidase; 6His (pHISTEV) (cleaved yes); made in house; host or cells: E. coli
The description is as above. More on the design: key: Green: green indicates that the variant closely resembles its WT counterpart for that particular characteristic; Green’: pale green (green’) or yellow indicate increasing degrees of differences; Yellow: pale green (green’) or yellow indicate increasing degrees of differences; Orange: Red or orange indicate significant differences; Red or orange indicate significant differences. Conditions: qualitative colour code vs WT.
Description: as §1, §2, §3

Test [4] concerns the target T4, Streptococcus pneumoniae NanA sialidase CBM (SpCBM, SEQ ID NO: 4) variant Im22 I286A (Streptococcus pneumoniae, UniProt P62575, I286A).
T4 construct: SpCBM, residues 121-305 of S. pneumoniae NanA sialidase; 6His (pHISTEV) (cleaved yes); made in house; host or cells: E. coli
The test is described as above. Details: key: Green: green indicates that the variant closely resembles its WT counterpart for that particular characteristic; Green’: pale green (green’) or yellow indicate increasing degrees of differences; Yellow: pale green (green’) or yellow indicate increasing degrees of differences; Orange: Red or orange indicate significant differences; Red or orange indicate significant differences. To be noted: qualitative colour code vs WT.
Description: as §1, §2, §3

Test [5] deals with T5, Streptococcus pneumoniae NanA sialidase CBM (SpCBM, residues 121-305), wild type WTSp, SEQ ID NO: 4 (Streptococcus pneumoniae, UniProt P62575).
T5 construct: SpCBM, residues 121-305 of S. pneumoniae NanA sialidase; 6His (pHISTEV) (cleaved yes); made in house; host or cells: E. coli
Described as above. Details: key: Green: green indicates that the variant closely resembles its WT counterpart for that particular characteristic; Green’: pale green (green’) or yellow indicate increasing degrees of differences; Yellow: pale green (green’) or yellow indicate increasing degrees of differences; Orange: Red or orange indicate significant differences; Red or orange indicate significant differences. Conditions: qualitative colour code vs WT.
Description: as §1, §2, §3

The target in test [6] is T6, Streptococcus pneumoniae NanA sialidase CBM (SpCBM, SEQ ID NO: 4) variant Im23 Y292E (Streptococcus pneumoniae, UniProt P62575, Y292E).
T6 construct: SpCBM, residues 121-305 of S. pneumoniae NanA sialidase; 6His (pHISTEV) (cleaved yes); made in house; host or cells: E. coli
The description is as above. More on the design: key to Biacore (binding affinity to sialyllactose): Green: green indicates that the variant closely resembles its WT counterpart for that particular characteristic; Green’: pale green (green’) or yellow indicate increasing degrees of differences; Yellow: pale green (green’) or yellow indicate increasing degrees of differences; Orange: Red or orange indicate significant differences; Red or orange indicate significant differences.
Description: as §1, §2, §3

Test [7] addresses T7, Sp2CBMTD (SpOrig, SEQ ID NO: 7) variant HEX17 A162P/V239A/V246G/S342D/R403K, SEQ ID NO: 9 (Streptococcus pneumoniae, UniProt P62575, A162P/V239A/V246G).
T7 construct: PDB 2w38); trimerises; pHISTEV 6His, E. coli
Nature of the test: Biacore characterization of hexameric Sp2CBMTD variants. It counts as binding, Streptococcus pneumoniae (CBM); Pseudomonas aeruginosa (TD). Details: key: Green: green indicates that the variant closely resembles its WT counterpart for that particular characteristic; Green’: pale green (green’) or yellow indicate increasing degrees of differences; Yellow: pale green (green’) or yellow indicate increasing degrees of differences; Orange: Red or orange indicate significant differences; Red or orange indicate significant differences. Conditions: qualitative colour code vs WT hexamer.
Description: as §3

The target of test [8] is T8, Sp2CBMTD (SpOrig, SEQ ID NO: 7) variant HEX6 V239A/V246G/S342D/R403K, SEQ ID NO: 8 (Streptococcus pneumoniae, UniProt P62575, V239A/V246G).
T8 construct: trimerises; pHISTEV 6His, E. coli
The test is described as above. It counts as binding, Streptococcus pneumoniae (CBM); Pseudomonas aeruginosa (TD). Details: key: Green: green indicates that the variant closely resembles its WT counterpart for that particular characteristic; Green’: pale green (green’) or yellow indicate increasing degrees of differences; Yellow: pale green (green’) or yellow indicate increasing degrees of differences; Orange: Red or orange indicate significant differences; Red or orange indicate significant differences. To be noted: qualitative colour code vs WT hexamer.
Description: as §3

With `CC(=O)N[C@H]1[C@H]([C@H](O)[C@H](O)CO)O[C@@](O[C@H]2[C@@H](O)[C@@H](CO)O[C@@H](O[C@H]3[C@H](O)[C@@H](O)C(O)O[C@@H]3CO)[C@@H]2O)(C(=O)O)C[C@@H]1O` (stereo partly drawn) [sialyllactose], the “Biacore (binding affinity to sialyllactose)” value in test [1] was “Green”; in test [2], “Green”; in test [3], “Green”; in test [4] it was “Green”; in test [5] it was “Green”; in test [6] (qualitative colour code vs WT), “Yellow”. In addition, the ligand affinity result in test [6] (in words, compared with WT) is listed as “reduced ligand affinity”. The Biacore entry in test [7] and in test [8] was “Green” throughout.
